Each structure is given as a SMILES string.

The term inhibition denotes the percentage by which the read-out fell short of the control.

The target in experiment [1] is Casein kinase I isoform alpha (Homo sapiens) (UniProt P48729). In words: Inhibition of human full length CSNK1A1 expressed in baculovirus assessed as substrate phosphorylation using fluorescence-labelled peptides as substrate at 2 uM after 90 mins by microfluidic peptide phosphorylation assay.
In experiment [2] the target is Serine/threonine-protein kinase MARK1 (Homo sapiens) (UniProt Q9P0L2). Description: Inhibition of human full length MARK1 expressed in baculovirus assessed as substrate phosphorylation using fluorescence-labelled peptides as substrate at 2 uM after 90 mins by microfluidic peptide phosphorylation assay.
Sequence of Serine/threonine-protein kinase MARK1 (Homo sapiens) (Q9P0L2 whole entry, looked up): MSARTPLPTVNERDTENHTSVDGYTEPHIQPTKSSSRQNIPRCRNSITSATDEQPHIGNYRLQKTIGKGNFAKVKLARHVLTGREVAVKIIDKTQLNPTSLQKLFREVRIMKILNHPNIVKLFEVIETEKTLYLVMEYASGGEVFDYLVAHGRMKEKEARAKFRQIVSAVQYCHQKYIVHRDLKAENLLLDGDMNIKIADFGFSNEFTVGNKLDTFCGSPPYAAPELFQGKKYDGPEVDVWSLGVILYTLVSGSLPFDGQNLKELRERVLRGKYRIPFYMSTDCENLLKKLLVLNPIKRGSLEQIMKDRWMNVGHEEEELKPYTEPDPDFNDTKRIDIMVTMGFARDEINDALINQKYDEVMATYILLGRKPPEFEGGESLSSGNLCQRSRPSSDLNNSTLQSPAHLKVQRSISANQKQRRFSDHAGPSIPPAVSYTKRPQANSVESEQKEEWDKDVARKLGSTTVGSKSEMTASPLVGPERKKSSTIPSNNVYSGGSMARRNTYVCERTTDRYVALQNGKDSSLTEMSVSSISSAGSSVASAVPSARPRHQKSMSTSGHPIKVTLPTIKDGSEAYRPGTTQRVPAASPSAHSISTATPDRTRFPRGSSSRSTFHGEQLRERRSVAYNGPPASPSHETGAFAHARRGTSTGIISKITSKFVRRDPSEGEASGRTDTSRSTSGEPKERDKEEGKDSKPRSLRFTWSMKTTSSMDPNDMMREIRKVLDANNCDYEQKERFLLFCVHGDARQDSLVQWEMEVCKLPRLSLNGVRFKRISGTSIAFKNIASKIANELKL
For experiment [3], the target named is T1, Serine/threonine-protein kinase BRSK1 (Homo sapiens) (UniProt Q8TDC3).
T1 sequence (whole entry): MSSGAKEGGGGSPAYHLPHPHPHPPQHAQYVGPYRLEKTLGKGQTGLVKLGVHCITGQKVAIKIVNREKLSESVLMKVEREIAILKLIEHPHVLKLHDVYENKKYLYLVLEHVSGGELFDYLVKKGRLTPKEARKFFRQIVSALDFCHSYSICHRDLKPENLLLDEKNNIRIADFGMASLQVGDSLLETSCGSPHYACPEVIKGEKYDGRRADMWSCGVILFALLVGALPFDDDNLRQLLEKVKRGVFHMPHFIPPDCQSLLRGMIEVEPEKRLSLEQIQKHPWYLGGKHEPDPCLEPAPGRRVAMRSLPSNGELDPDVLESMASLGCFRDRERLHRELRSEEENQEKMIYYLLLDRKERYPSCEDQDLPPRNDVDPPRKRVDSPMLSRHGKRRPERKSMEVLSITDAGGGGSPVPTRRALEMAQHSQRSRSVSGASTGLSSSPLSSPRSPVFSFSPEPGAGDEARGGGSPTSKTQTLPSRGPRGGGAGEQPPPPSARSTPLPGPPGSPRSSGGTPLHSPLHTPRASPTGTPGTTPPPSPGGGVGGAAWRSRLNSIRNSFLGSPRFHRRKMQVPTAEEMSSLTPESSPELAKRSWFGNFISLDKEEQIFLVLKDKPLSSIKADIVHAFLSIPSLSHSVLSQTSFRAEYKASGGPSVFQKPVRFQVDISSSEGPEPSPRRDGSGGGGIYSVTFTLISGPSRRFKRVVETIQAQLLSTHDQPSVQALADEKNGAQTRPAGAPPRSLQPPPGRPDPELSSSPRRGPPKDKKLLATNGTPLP
Description: Inhibition of human full length BRSK1 expressed in baculovirus assessed as substrate phosphorylation using fluorescence-labelled peptides as substrate at 0.1 uM after 90 mins by microfluidic peptide phosphorylation assay.

Experiment [4] addresses Serine/threonine-protein kinase PAK 2 (Homo sapiens) (UniProt Q13177). The settings on record: 0.1 uM.
Description: Inhibition of human truncated PAK2 expressed in Escherichia coli cell assessed as substrate phosphorylation using fluorescence-labelled peptides as substrate at 0.1 uM after 90 mins by microfluidic peptide phosphorylation assay
The target in experiment [5] is T2, Serine/threonine-protein kinase Sgk2 (Homo sapiens) (UniProt Q9HBY8).
T2 sequence (whole entry): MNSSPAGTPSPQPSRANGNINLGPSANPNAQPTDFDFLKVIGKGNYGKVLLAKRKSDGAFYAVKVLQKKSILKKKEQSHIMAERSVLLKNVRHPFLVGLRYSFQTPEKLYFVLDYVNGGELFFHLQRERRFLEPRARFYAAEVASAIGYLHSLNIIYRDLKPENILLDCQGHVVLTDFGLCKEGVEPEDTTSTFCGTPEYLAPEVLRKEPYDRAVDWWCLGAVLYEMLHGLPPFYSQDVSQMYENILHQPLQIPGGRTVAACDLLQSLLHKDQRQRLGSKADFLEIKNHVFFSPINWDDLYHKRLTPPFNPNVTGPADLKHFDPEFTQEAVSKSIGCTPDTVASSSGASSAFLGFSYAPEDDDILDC
Description: Inhibition of human full length SGK2 expressed in baculovirus assessed as substrate phosphorylation using fluorescence-labelled peptides as substrate at 0.1 uM after 90 mins by microfluidic peptide phosphorylation assay.

Experiment [6] has as its target T1, Serine/threonine-protein kinase BRSK1 (Homo sapiens). Description: Inhibition of human full length BRSK1 expressed in baculovirus assessed as substrate phosphorylation using fluorescence-labelled peptides as substrate at 0.2 uM after 90 mins by microfluidic peptide phosphorylation assay.
The target of experiment [7] is Serine/threonine-protein kinase MARK2 (Homo sapiens) (UniProt Q7KZI7). Description: Inhibition of human full length MARK2 expressed in baculovirus assessed as substrate phosphorylation using fluorescence-labelled peptides as substrate at 0.2 uM after 90 mins by microfluidic peptide phosphorylation assay.
Sequence of Serine/threonine-protein kinase MARK2 (Homo sapiens) (Q7KZI7 whole entry, the tested form may be a part): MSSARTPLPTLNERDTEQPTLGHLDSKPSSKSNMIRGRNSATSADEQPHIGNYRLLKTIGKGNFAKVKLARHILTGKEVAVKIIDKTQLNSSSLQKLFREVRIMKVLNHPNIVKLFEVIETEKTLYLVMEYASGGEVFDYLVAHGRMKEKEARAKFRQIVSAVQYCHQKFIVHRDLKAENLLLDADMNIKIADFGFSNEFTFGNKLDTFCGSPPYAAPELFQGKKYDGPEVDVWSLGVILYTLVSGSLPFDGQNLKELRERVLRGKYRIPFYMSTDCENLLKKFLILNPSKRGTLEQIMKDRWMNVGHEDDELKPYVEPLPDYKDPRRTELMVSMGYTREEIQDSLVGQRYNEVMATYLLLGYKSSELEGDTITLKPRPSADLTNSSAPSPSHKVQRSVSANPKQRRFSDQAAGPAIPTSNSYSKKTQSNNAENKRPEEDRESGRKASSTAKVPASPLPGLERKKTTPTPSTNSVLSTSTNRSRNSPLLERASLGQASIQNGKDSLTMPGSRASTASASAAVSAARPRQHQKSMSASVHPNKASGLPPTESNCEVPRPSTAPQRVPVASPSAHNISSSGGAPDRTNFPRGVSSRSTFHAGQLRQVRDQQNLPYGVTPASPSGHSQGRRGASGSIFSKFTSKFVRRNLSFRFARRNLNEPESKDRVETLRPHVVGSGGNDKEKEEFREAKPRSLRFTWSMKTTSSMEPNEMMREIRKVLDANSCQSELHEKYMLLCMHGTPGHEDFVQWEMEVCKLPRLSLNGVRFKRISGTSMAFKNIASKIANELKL
Experiment [8] addresses Receptor-type tyrosine-protein kinase FLT3 (Homo sapiens) (UniProt P36888). In words: Inhibition of human FLT3 catalytic domain expressed in baculovirus assessed as substrate phosphorylation using fluorescence-labelled peptides as substrate at 0.06 uM after 90 mins by microfluidic peptide phosphorylation assay.
In experiment [9] the target is Tyrosine-protein kinase Fyn (Homo sapiens) (UniProt P06241). In words: Inhibition of human full length FYN expressed in baculovirus assessed as substrate phosphorylation using fluorescence-labelled peptides as substrate at 9 uM after 90 mins by microfluidic peptide phosphorylation assay.
Sequence of Tyrosine-protein kinase Fyn (Homo sapiens) (P06241 2-537 limits assumed): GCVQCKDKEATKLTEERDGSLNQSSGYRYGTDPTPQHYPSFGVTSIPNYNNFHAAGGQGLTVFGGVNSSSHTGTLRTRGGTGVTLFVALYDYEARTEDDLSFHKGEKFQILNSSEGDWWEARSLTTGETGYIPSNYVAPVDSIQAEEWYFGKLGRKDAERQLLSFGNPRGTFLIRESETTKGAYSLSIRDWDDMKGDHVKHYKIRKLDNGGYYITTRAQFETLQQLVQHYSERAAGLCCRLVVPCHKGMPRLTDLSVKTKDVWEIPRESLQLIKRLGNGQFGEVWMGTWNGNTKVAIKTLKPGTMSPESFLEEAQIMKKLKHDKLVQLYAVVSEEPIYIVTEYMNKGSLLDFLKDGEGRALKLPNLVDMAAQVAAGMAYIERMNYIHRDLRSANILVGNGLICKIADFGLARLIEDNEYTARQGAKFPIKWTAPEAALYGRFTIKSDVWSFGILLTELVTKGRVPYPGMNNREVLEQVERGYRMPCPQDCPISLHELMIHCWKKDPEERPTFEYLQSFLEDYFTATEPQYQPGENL
Experiment [10] deals with Glycogen synthase kinase-3 beta (Homo sapiens) (UniProt P49841). In words: Inhibition of human full length GSK-3 beta expressed in baculovirus assessed as substrate phosphorylation using fluorescence-labelled peptides as substrate at 9 uM after 90 mins by microfluidic peptide phosphorylation assay.
Sequence of Glycogen synthase kinase-3 beta (Homo sapiens) (P49841 whole entry, looked up): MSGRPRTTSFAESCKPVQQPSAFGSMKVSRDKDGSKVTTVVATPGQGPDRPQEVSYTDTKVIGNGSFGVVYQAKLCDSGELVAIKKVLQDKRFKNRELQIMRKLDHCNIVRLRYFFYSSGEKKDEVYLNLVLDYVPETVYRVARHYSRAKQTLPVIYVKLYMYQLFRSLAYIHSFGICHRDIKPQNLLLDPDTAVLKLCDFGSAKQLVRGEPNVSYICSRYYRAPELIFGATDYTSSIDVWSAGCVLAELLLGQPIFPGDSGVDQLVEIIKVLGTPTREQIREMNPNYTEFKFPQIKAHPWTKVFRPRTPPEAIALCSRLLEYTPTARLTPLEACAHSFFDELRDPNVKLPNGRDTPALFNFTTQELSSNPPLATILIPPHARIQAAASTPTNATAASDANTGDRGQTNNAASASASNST
Experiment [11] has as its target Ribosomal protein S6 kinase alpha-3 (Homo sapiens) (UniProt P51812). Description: Inhibition of human full length RSK2 expressed in baculovirus assessed as substrate phosphorylation using fluorescence-labelled peptides as substrate at 95 uM after 90 mins by microfluidic peptide phosphorylation assay.
The target of experiment [12] is Receptor-type tyrosine-protein kinase FLT3 (Homo sapiens) (UniProt P36888). Description: Inhibition of human FLT3 catalytic domain expressed in baculovirus assessed as substrate phosphorylation using fluorescence-labelled peptides as substrate at 8 uM after 90 mins by microfluidic peptide phosphorylation assay.
Sequence of Receptor-type tyrosine-protein kinase FLT3 (Homo sapiens) (P36888 whole entry, the tested form may be a part): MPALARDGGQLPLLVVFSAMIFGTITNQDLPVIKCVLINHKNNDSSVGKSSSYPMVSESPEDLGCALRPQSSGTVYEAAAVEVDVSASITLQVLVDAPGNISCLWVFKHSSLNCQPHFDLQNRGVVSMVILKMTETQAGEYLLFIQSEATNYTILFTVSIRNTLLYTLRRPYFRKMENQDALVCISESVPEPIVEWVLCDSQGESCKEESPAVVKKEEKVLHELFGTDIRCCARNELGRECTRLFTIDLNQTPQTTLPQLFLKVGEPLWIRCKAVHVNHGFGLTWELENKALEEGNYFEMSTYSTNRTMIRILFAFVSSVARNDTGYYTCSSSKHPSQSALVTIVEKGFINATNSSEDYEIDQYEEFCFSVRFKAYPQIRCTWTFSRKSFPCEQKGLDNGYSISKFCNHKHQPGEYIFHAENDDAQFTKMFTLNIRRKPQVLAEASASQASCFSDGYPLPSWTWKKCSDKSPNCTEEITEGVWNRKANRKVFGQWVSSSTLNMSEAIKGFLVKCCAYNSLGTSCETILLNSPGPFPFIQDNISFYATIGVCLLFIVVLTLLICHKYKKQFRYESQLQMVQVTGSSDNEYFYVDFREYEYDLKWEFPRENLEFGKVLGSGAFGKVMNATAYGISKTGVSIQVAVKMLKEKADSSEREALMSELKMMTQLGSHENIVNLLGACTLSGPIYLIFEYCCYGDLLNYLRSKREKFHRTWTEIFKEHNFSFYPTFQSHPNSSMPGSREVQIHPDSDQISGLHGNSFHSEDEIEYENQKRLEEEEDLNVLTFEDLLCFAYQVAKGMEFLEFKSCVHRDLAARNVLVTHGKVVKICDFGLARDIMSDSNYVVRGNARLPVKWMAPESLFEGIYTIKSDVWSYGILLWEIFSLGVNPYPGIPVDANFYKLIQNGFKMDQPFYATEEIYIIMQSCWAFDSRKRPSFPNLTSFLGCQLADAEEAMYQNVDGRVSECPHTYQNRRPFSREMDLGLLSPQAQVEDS
For experiment [13], the target named is Fibroblast growth factor receptor 3 (Homo sapiens) (UniProt P22607). In words: Inhibition of human FGFR3 catalytic domain expressed in baculovirus assessed as substrate phosphorylation using fluorescence-labelled peptides as substrate at 420 uM after 90 mins by microfluidic peptide phosphorylation assay.
Sequence of Fibroblast growth factor receptor 3 (Homo sapiens) (P22607 23-806 limits assumed): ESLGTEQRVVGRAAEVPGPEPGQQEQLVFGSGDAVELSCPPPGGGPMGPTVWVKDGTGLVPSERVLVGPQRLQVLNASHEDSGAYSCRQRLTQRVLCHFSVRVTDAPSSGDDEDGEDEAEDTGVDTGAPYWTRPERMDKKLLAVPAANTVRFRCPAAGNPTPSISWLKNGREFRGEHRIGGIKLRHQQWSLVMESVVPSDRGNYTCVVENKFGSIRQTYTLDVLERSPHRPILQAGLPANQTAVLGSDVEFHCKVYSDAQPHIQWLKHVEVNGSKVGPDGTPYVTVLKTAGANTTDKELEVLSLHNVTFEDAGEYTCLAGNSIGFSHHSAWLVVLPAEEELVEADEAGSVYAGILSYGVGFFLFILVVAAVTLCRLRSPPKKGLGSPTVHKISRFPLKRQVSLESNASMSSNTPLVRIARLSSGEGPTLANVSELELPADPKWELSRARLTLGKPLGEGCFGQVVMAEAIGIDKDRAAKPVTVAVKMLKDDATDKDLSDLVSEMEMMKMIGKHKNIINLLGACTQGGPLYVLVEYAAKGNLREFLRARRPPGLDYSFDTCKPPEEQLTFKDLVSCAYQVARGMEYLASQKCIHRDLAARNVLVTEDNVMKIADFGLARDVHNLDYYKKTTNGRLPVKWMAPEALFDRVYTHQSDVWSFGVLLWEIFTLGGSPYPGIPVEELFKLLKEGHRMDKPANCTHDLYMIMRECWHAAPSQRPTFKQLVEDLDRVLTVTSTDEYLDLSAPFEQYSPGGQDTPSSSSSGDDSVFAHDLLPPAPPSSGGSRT
For experiment [14], the target named is T3, Aurora kinase A (Homo sapiens) (UniProt O14965).
T3 sequence (whole entry): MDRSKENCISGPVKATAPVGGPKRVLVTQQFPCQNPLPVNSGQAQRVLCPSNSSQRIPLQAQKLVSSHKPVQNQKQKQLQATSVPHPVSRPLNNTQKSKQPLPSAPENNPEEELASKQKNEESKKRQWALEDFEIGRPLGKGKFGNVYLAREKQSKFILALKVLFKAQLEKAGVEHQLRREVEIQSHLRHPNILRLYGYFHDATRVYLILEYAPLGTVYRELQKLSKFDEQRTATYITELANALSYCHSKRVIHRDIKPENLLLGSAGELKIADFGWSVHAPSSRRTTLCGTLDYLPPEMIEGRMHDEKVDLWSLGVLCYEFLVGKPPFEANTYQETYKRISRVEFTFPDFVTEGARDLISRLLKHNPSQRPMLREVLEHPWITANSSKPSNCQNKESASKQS
Description: Inhibition of human full length AurA expressed in baculovirus assessed as substrate phosphorylation using fluorescence-labelled peptides as substrate at 1000 uM after 90 mins by microfluidic peptide phosphorylation assay.

Experiment [15] has as its target RAF proto-oncogene serine/threonine-protein kinase (Homo sapiens) (UniProt P04049). Description: Inhibition of human truncated c-Raf expressed in baculovirus assessed as substrate phosphorylation using fluorescence-labelled peptides as substrate at 1000 uM after 90 mins by microfluidic peptide phosphorylation assay.

Sequence of Serine/threonine-protein kinase PAK 2 (Homo sapiens) (Q13177 whole entry): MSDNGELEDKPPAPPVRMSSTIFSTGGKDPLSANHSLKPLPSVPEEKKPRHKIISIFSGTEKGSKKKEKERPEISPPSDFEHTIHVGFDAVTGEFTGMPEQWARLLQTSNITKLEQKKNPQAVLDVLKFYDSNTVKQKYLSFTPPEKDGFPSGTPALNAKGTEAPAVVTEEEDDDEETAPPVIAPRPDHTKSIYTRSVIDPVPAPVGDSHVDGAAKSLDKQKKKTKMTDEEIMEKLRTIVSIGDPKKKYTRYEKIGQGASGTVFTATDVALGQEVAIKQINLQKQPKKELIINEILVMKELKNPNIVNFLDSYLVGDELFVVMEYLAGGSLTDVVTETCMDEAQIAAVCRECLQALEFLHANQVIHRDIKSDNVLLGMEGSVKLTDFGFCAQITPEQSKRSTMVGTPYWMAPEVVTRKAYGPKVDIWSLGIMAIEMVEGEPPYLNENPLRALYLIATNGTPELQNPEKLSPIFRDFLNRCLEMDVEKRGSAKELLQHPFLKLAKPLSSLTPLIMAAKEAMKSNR

For the compound `NC1CCN(c2ncnc3[nH]ccc23)CC1`, the results for the inhibition in experiment [1] and in experiment [2] were 9.5% and 34.5%, respectively.

Consider `C[C@H](CN(C)C)Oc1nc(Nc2cc3cccc(Cl)c3cn2)cnc1C#N`, for which the inhibition in experiment [3] came to 16.5%; in experiment [4], 0%; in experiment [5], 5.5%.

For the compound `Clc1ccc(C2(c3ccc(-c4ncnc5[nH]cnc45)cc3)CCNCC2)cc1`, the values for the inhibition in [6] and in [7] were 11% and 41.5%, respectively.

For `NC1(Cc2ccc(Cl)cc2)CCN(c2ncnc3[nH]ccc23)CC1`, the inhibition in experiment [8] was determined as 0%.

On to `NCC1CN(c2ncnc3[nH]c4cnccc4c23)CCO1` (stereo not given), for which the inhibition in experiment [9] is 29.5%; in experiment [10], 94%.

With `NCCc1ccc(-c2ncnc3[nH]cnc23)cc1`, the inhibition in [11] was 87.5%.

As to `NCC1CCN(c2ncnc3[nH]ccc23)CC1`, the inhibition in experiment [12] worked out at 0%.

`c1nc(N2CCOCC2)c2nc[nH]c2n1`: the inhibition in experiment [13] was found to be 95%.

In the case of `c1cnc2[nH]ccc2c1`, the inhibition in experiment [14] was determined as 88%; in [15], 20%.

Source of the values: ChEMBL document CHEMBL3132769, “Fragment growing to retain or alter the selectivity of anchored kinase hinge-binding fragments” (Medchemcomm, 2014).
